# Assay results as given in patent publication US20200347043A1, “MODULATORS OF THE INTEGRATED STRESS PATHWAY” (Calico Life Sciences LLC, priority 2019, published 2020).
# Test system: HEK293T cells carrying the ATF4 luciferase reporter
# Assay: ATF4-Luc assay (in vitro model of VWMD)
# Type: cell-based, human
# Details: Homo sapiens, HEK-293T, 1 μg/mL tunicamycin, 7 hours, One Glo luminescence
# How it was run: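 Stable HEK293T line expressing firefly luciferase behind the human ATF4 5′-UTR, treated with 1 μg/mL tunicamycin plus compound for 7 hours. Luminescence read with One Glo; EC50 determined.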
row,Structure (SMILES),EC50 [nM]
1,"O=C1CC(C(=O)N[C@@H]2CC[C@@H](C(=O)NCc3cn4ccc(Cl)cc4n3)OC2)Oc2ccc(Cl)cc21 (stereo partly drawn) [Compound 140, 6-chloro-N-[(3R,6S)-6-{[(7-chloroimidazo[1,2-a]pyridin-2-yl)methyl]carbamoyl}oxan-3-yl]-4-oxo-3,4-dihydro-2H-1-benzopyran-2-carboxamide]",50 to 250
2,"O=C(COc1ccc(Cl)c(F)c1)N[C@H]1CC[C@H](NC(=O)C2CC(O)c3cc(Cl)ccc3O2)CC1 (stereo partly drawn) [Compound 141, 6-chloro-N-{(1r,4r)-4-[2-(4-chloro-3-fluorophenoxy)acetamido]cyclohexyl}-4-hydroxy-3,4-dihydro-2H-1-benzopyran-2-carboxamide]",10 to 50
3,"Cc1cc(C)cc(OCC2CN(C34CC(NC(=O)[C@H]5C[C@@H](O)c6cc(Cl)ccc6O5)(C3)C4)C(=O)O2)c1 (stereo partly drawn) [Compound 142, (2R,4R)-6-chloro-N-(3-{5-[(3,5-dimethylphenoxy)methyl]-2-oxo-1,3-oxazolidin-3-yl}bicyclo[1.1.1]pentan-1-yl)-4-hydroxy-3,4-dihydro-2H-1-benzopyran-2-carboxamide]",> 2000
4,"O=C(NC1CC2(C1)CN(C(=O)COc1ccc(Cl)c(F)c1)C2)[C@H]1C[C@@H](O)c2cc(Cl)ccc2O1 [Compound 143, (2R,4R)-6-chloro-N-{2-[(4-chloro-3-fluorophenoxy)acetyl]-2-azaspiro[3.3]heptan-6-yl}-4-hydroxy-3,4-dihydro-2H-1-benzopyran-2-carboxamide]",50 to 250
5,"O=C(COc1ccc(Cl)c(F)c1)NC1CC2(C1)CN(C(=O)C1CC(=O)c3cc(Cl)ccc3O1)C2 (stereo not drawn) [Compound 144, 2-(4-chloro-3-fluorophenoxy)-N-[2-(6-chloro-4-oxo-3,4-dihydro-2H-1-benzopyran-2-carbonyl)-2-azaspiro[3.3]heptan-6-yl]acetamide]",50 to 250
6,"O=C(NC12CCC(NC(=O)[C@H]3C[C@@H](OC(F)(F)F)C3)(CC1)[C@@H](O)C2)c1cc(=O)c2cc(Cl)ccc2o1 [Compound 146, 6-chloro-N-[(3S)-3-hydroxy-4-{[(1s,3R)-3-(trifluoromethoxy)cyclobutane-1-carbonyl]amino}bicyclo[2.2.2]octan-1-yl]-4-oxo-4H-1-benzopyran-2-carboxamide]",250 to 500
7,"O=C1CC(C(=O)NC23CC(n4cnc(-c5ccc(F)c(F)c5)c4)(C2)C3)Oc2ccc(Cl)cc21 (stereo not drawn) [Compound 148, 6-chloro-N-{3-[4-(3,4-difluorophenyl)-1H-imidazol-1-yl]bicyclo[1.1.1]pentan-1-yl}-4-oxo-3,4-dihydro-2H-1-benzopyran-2-carboxamide]",10 to 50
8,"O=C1CC(C(=O)NC23CCC(c4nnc(C5CC(OC(F)(F)F)C5)o4)(C2)C3)Oc2ccc(Cl)cc21 (stereo not drawn) [Compound 150, 6-chloro-4-oxo-N-(4-{5-[(1s,3s)-3-(trifluoromethoxy)cyclobutyl]-1,3,4-oxadiazol-2-yl}bicyclo[2.1.1]hexan-1-yl)-3,4-dihydro-2H-1-benzopyran-2-carboxamide]",> 2000
9,"O=C1CC(C(=O)N[C@@H]2CC[C@@H](c3nnc([C@H]4C[C@@H](OC(F)(F)F)C4)o3)OC2)Oc2ccc(Cl)cc21 (stereo partly drawn) [Compound 152, 6-chloro-4-oxo-N-[(3R,6)-6-{5-[(1s,3R)-3-(trifluoromethoxy)cyclobutyl]-1,3,4-oxadiazol-2-yl}oxan-3-yl]-3,4-dihydro-2H-1-benzopyran-2-carboxamide]",10 to 50
10,"O=C(COc1ccc(Cl)c(F)c1)N[C@@H]1CC[C@@H](c2nnc([C@H]3C[C@@H](OC(F)(F)F)C3)o2)OC1 [Compound 153, 2-(4-chloro-3-fluorophenoxy)-N-[(3R,6S)-6-{5-[(1s,3R)-3-(trifluoromethoxy)cyclobutyl]-1,3,4-oxadiazol-2-yl}oxan-3-yl]acetamide]",< 10
11,"O=C(NC12CC(C3NC(COc4ccc(Cl)c(F)c4)=NO3)(C1)C2)[C@H]1C[C@@H](O)c2cc(Cl)ccc2O1 (stereo partly drawn) [Compound 154, (2R,4R)-6-chloro-N-(3-{3-[(4-chloro-3-fluorophenoxy)methyl]-4,5-dihydro-1,2,4-oxadiazol-5-yl}bicyclo[1.1.1]pentan-1-yl)-4-hydroxy-3,4-dihydro-2H-1-benzopyran-2-carboxamide]",10 to 50
12,"O=C1C[C@H](C(=O)NC23CC(c4nc(COc5ccc(Cl)c(F)c5)no4)(C2)C3)Oc2ccc(Cl)cc21 [Compound 155, (2R)-6-chloro-N-(3-{3-[(4-chloro-3-fluorophenoxy)methyl]-1,2,4-oxadiazol-5-yl}bicyclo[1.1.1]pentan-1-yl)-4-oxo-3,4-dihydro-2H-1-benzopyran-2-carboxamide]",10 to 50
13,"O=C(NC12CC(c3nc(COc4ccc(Cl)c(F)c4)no3)(C1)C2)[C@H]1C[C@@H](O)c2cc(Cl)ccc2O1 [Compound 156, (2R,4R)-6-chloro-N-(3-{3-[(4-chloro-3-fluorophenoxy)methyl]-1,2,4-oxadiazol-5-yl}bicyclo[1.1.1]pentan-1-yl)-4-hydroxy-3,4-dihydro-2H-1-benzopyran-2-carboxamide]",< 10
14,O=C(CO[C@H]1C[C@@H](OC(F)(F)F)C1)NC12CCC(C(=O)NCc3ccc(C(F)(F)F)cn3)(CC1)CC2 [Compound 157],> 2000
15,"O=C(CO[C@H]1C[C@@H](OC(F)(F)F)C1)N[C@H]1CC[C@H](C(=O)NCc2ccc(C(F)(F)F)cn2)CC1 [Compound 158, (1r,4r)-4-(2-{[(1s,3s)-3-(trifluoromethoxy)cyclobutyl]oxy}acetamido)-N-([5-(trifluoromethyl)pyridin-2-yl]methyl)cyclohexane-1-carboxamide]",> 2000
16,"O=C(CO[C@H]1C[C@@H](OC(F)(F)F)C1)NC12CC(NC(=O)[C@H]3CC(=O)c4cc(Cl)ccc4O3)(C1)C2 [Compound 162, (2R)-6-chloro-4-oxo-N-[3-(2-{[cis-3-(trifluoromethoxy)cyclobutyl]oxy}acetamido)bicyclo[1.1.1]pentan-1-yl]-3,4-dihydro-2H-1-benzopyran-2-carboxamide]",10 to 50
17,O=C1CC(C(=O)NC23CCC(c4nnc([C@H]5C[C@@H](OC(F)(F)F)C5)o4)(CC2)OC3)Oc2ccc(Cl)cc21 (stereo partly drawn) [Compound 163],10 to 50
18,"O=C(CO[C@H]1C[C@@H](OC(F)(F)F)C1)NC12CC(NC(=O)[C@H]3C[C@@H](O)c4cc(Cl)ccc4O3)(C1)C2 [Compound 164, (2R,4R)-6-chloro-4-hydroxy-N-[3-(2-{[cis-3-(trifluoromethoxy)cyclobutyl]oxy}acetamido)bicyclo[1.1.1]pentan-1-yl]-3,4-dihydro-2H-1-benzopyran-2-carboxamide]",< 10
19,O=C(NC12CCC(c3nnc([C@H]4C[C@@H](OC(F)(F)F)C4)o3)(CC1)OC2)C1CC(O)c2cc(Cl)ccc2O1 (stereo partly drawn) [Compound 165],10 to 50
20,"O=C1CC(C(=O)NC23CCC(c4nnc([C@H]5C[C@@H](OC(F)(F)F)C5)o4)(CC2)CC3)Oc2ccc(Cl)cc21 (stereo partly drawn) [Compound 167, 6-chloro-4-oxo-N-(4-{5-[cis-3-(trifluoromethoxy)cyclobutyl]-1,3,4-oxadiazol-2-yl}bicyclo[2.2.2]octan-1-yl)-3,4-dihydro-2H-1-benzopyran-2-carboxamide]",10 to 50
21,"O=C(N[C@@H]1CC[C@@H](c2nnc([C@H]3C[C@@H](OC(F)(F)F)C3)o2)OC1)[C@H]1C[C@@H](O)c2cc(Cl)ccc2O1 [Compound 169, (2R,4R)-6-chloro-4-hydroxy-N-[(3R,6S)-6-{5-[cis-3-(trifluoromethoxy)cyclobutyl]-1,3,4-oxadiazol-2-yl}oxan-3-yl]-3,4-dihydro-2H-1-benzopyran-2-carboxamide]",< 10
